Values quoted from earlier work in patent publication US6663901B1, “Pellets having a core coated with an antifungal and a polymer” (Janssen Pharmaceutical N.V., priority 1998, dated 2003).

solubility in water: only very sparingly soluble
Structure (SMILES): CCC(C)n1ncn(-c2ccc(N3CCN(c4ccc(OCC5COC(Cn6cncn6)(c6ccc(Cl)cc6Cl)O5)cc4)CC3)cc2)c1=O (racemic) [itraconazole, (±)-cis-4-[4-[4-[4-[[2-(2,4-dichlorophenyl)-2-(1H-1,2,4-triazol-1-methyl)-1,3-dioxolan-4-yl]methoxy]phenyl]-1-piperazinyl]phenyl]-2,4-dihydro-2-(1-methylpropyl)-3H-1,2,4-triazol-3-one]
